The text below walks through data of US11420935B2, “Bicyclic compounds” (Vivace Therapeutics, Inc., priority 2019, dated 2022).

For the first test, the system named is 8×TBD luciferase reporter (YAP) in HEK293T cells. As to the kind of experiment: YAP Reporter Assay (8×TBD firefly luciferase reporter). The class given is cell-based. Conditions: Homo sapiens, HEK-293T, 24 h, read-out: Firefly Luciferase IC50 (μM). In short, it runs like this:
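Stably transfected HEK293T cells (8×TBD firefly luciferase plus TK-renilla) were dosed with 10-point 1:3 dilutions from 3 μM final, quadruplicates, for 24 h at 37 °C. Dual-Glo read firefly and renilla luminescence; IC50 and maximal inhibition reported separately for each.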
Background: A reporter such as luciferase makes a cellular process visible.
`COc1cc(Oc2ccc(C(F)(F)F)cc2)c2ncc(C(=O)NC(C)C)cc2c1` [Compound 113, N-Isopropyl-6-methoxy-8-(4-(trifluoromethyl)phenoxy)quinoline-3-carboxamide]: the IC50 is below 0.1 µM.
Still for that read-out and setting: then `C[C@H](NC(=O)c1ccc2c(Oc3ccc(C(F)(F)F)cc3)cccc2c1)C1CN(CCO)C1` [Compound 128, (S)—N-(1-(1-(2-hydroxyethyl)azetidin-3-yl)ethyl)-5-(4-(trifluoromethyl)phenoxy)-2-naphthamide], with 0.1 to 1 µM; and `C[C@@H](NC(=O)c1ccc2c(Oc3ccc(C(F)(F)F)cc3)cccc2c1)C1CN(CCO)C1` [Compound 135, (R)—N-(1-(1-(2-hydroxyethyl)azetidin-3-yl)ethyl)-5-(4-(trifluoromethyl)phenoxy)-2-naphthamide], with 0.1 to 1 µM.

Staying with this test, now noted: Homo sapiens, HEK-293T; HEK293T cells stably transfected with 8×TBD luciferase reporter and pRLTK; 24-hr incubation; firefly luciferase activity; read-out: Firefly Luciferase IC50.
Take `C[C@H](CN)NC(=O)c1ccc2c(Oc3ccc(C(F)(F)F)cc3)cccc2c1` [Compound 107, (R)—N-(1-aminopropan-2-yl)-5-(4-(trifluoromethyl)phenoxy)-2-naphthamide]: the IC50 was 0.1 to 1 µM.
Same read-out and setting: then `C[C@@H](CN)NC(=O)c1ccc2c(Oc3ccc(C(F)(F)F)cc3)cccc2c1` [Compound 108, (S)—N-(1-aminopropan-2-yl)-5-(4-(trifluoromethyl)phenoxy)-2-naphthamide], with below 0.1 µM.
Take `O=C(N[C@H](CCO)c1ccccn1)c1ccc2c(Oc3ccc(C(F)(F)F)cc3)cccc2c1` [Compound 109, (R)—N-(3-hydroxy-1-(pyridin-2-yl)propyl)-5-(4-(trifluoromethyl)phenoxy)-2-naphthamide]: the IC50 was in the range of 0.1 to 1 µM.
Same read-out and setting: to `O=C(N[C@@H](CCO)c1ccccn1)c1ccc2c(Oc3ccc(C(F)(F)F)cc3)cccc2c1` [Compound 110, (S)—N-(3-hydroxy-1-(pyridin-2-yl)propyl)-5-(4-(trifluoromethyl)phenoxy)-2-naphthamide] belongs below 0.1 µM; to `C[C@@H](CCN)NC(=O)c1ccc2c(Oc3ccc(C(F)(F)F)cc3)cccc2c1` [Compound 111, (S)—N-(4-aminobutan-2-yl)-5-(4-(trifluoromethyl)phenoxy)-2-naphthamide], below 0.1 µM; to `C[C@H](CCN)NC(=O)c1ccc2c(Oc3ccc(C(F)(F)F)cc3)cccc2c1` [Compound 112, (R)—N-(4-aminobutan-2-yl)-5-(4-(trifluoromethyl)phenoxy)-2-naphthamide], below 0.1 µM.
Regarding `C[C@H](CCO)NC(=O)c1ccc2c(Oc3ccc(C(F)(F)F)cc3)cccc2c1` [Compound 114, (R)—N-(4-hydroxybutan-2-yl)-5-(4-(trifluoromethyl)phenoxy)-2-naphthamide], the IC50 is below 0.1 µM.
Consider `C[C@@H](CCO)NC(=O)c1ccc2c(Oc3ccc(C(F)(F)F)cc3)cccc2c1` [Compound 115, (S)—N-(4-hydroxybutan-2-yl)-5-(4-(trifluoromethyl)phenoxy)-2-naphthamide], for which the IC50 was below 0.1 µM.
For `COc1cc(Oc2ccc(C(F)(F)F)cc2)c2ncc(C(=O)N[C@H](C)CO)cc2c1` [Compound 116, (R)—N-(1-hydroxypropan-2-yl)-6-methoxy-8-(4-(trifluoromethyl)phenoxy)quinoline-3-carboxamide], the IC50 is below 0.1 µM.
Take `NS(=O)(=O)c1ccc2c(Oc3ccc(C(F)(F)F)cc3)cccc2c1` [Compound 117, 5-(4-(trifluoromethyl)phenoxy)naphthalene-2-sulfonamide]: the half-inhibitory concentration (IC50) was below 0.1 µM.
Turning to `COc1cc(Oc2ccc(C(F)(F)F)cc2)c2ncc(C(=O)NC(CO)c3ccccn3)cc2c1` (stereo not drawn) [Compound 118, N-(2-Hydroxy-1-(pyridin-2-yl)ethyl)-6-methoxy-8-(4-(trifluoromethyl)phenoxy)quinoline-3-carboxamide], the IC50 was below 0.1 µM.
For `O=C(N[C@H](CO)c1ccccn1)c1ccc2c(Oc3ccc(C(F)(F)F)cc3)cccc2c1` [Compound 119, (S)—N-(2-hydroxy-1-(pyridin-2-yl)ethyl)-5-(4-(trifluoromethyl)phenoxy)-2-naphthamide], the IC50 is below 0.1 µM.
Regarding `O=C(N[C@@H](CO)c1ccccn1)c1ccc2c(Oc3ccc(C(F)(F)F)cc3)cccc2c1` [Compound 120, (R)—N-(2-hydroxy-1-(pyridin-2-yl)ethyl)-5-(4-(trifluoromethyl)phenoxy)-2-naphthamide], the 50% inhibitory concentration (IC50) lay within 0.1 to 1 µM.
As to `O=C(NC(CCO)CCO)c1ccc2c(Oc3ccc(C(F)(F)F)cc3)cccc2c1` [Compound 121, N-(1,5-dihydroxypentan-3-yl)-5-(4-(trifluoromethyl)phenoxy)-2-naphthamide], the 50% inhibitory concentration (IC50) was below 0.1 µM.
Turning to `C[C@@H](NC(=O)c1ccc2c(Oc3ccc(C(F)(F)F)cc3)cccc2c1)C1CN(CCCCO)C1` [Compound 123, (R)—N-(1-(1-(4-hydroxybutyl)azetidin-3-yl)ethyl)-5-(4-(trifluoromethyl)phenoxy)-2-naphthamide], the concentration for half-maximal inhibition (IC50) fell in the range of 0.1 to 1 µM.
Still for that read-out and setting: then `C[C@@H](NC(=O)c1ccc2c(Oc3ccc(C(F)(F)F)cc3)cccc2c1)C1CN(CCF)C1` [Compound 124, (R)—N-(1-(1-(2-fluoroethyl)azetidin-3-yl)ethyl)-5-(4-(trifluoromethyl)phenoxy)-2-naphthamide], with below 0.1 µM.
Consider `C[C@@H](NC(=O)c1ccc2c(Oc3ccc(C(F)(F)F)cc3)cccc2c1)C1CN(CC(F)F)C1` [Compound 125, (R)—N-(1-(1-(2,2-difluoroethyl)azetidin-3-yl)ethyl)-5-(4-(trifluoromethyl)phenoxy)-2-naphthamide], for which the IC50 was below 0.1 µM.
Take `C[C@@H](NC(=O)c1ccc2c(Oc3ccc(C(F)(F)F)cc3)cccc2c1)C1CN(C)C1` [Compound 126, (R)—N-(1-(1-methylazetidin-3-yl)ethyl)-5-(4-(trifluoromethyl)phenoxy)-2-naphthamide]: the IC50 lay in the range of 0.1 to 1 µM.
Regarding `C[C@H](NC(=O)c1ccc2c(Oc3ccc(C(F)(F)F)cc3)cccc2c1)C1CN(C)C1` [Compound 127, (S)—N-(1-(1-methylazetidin-3-yl)ethyl)-5-(4-(trifluoromethyl)phenoxy)-2-naphthamide], the IC50 fell in the range of 1 to 3 µM.
Take `C[C@H](NC(=O)c1ccc2c(Oc3ccc(C(F)(F)F)cc3)cccc2c1)C1CN(CCF)C1` [Compound 129, (S)—N-(1-(1-(2-fluoroethyl)azetidin-3-yl)ethyl)-5-(4-(trifluoromethyl)phenoxy)-2-naphthamide]: the IC50 was 1 to 3 µM.
Consider `CCN1CC([C@H](C)NC(=O)c2ccc3c(Oc4ccc(C(F)(F)F)cc4)cccc3c2)C1` [Compound 130, (S)—N-(1-(1-ethylazetidin-3-yl)ethyl)-5-(4-(trifluoromethyl)phenoxy)-2-naphthamide], for which the IC50 was in the range of 0.1 to 1 µM.
On to `CCN1CC([C@@H](C)NC(=O)c2ccc3c(Oc4ccc(C(F)(F)F)cc4)cccc3c2)C1` [Compound 131, (R)—N-(1-(1-ethylazetidin-3-yl)ethyl)-5-(4-(trifluoromethyl)phenoxy)-2-naphthamide], for which the IC50 was in the range of 0.1 to 1 µM.
On to `CC(C)N1CC([C@H](C)NC(=O)c2ccc3c(Oc4ccc(C(F)(F)F)cc4)cccc3c2)C1` [Compound 132, (S)—N-(1-(1-isopropylazetidin-3-yl)ethyl)-5-(4-(trifluoromethyl)phenoxy)-2-naphthamide], for which the IC50 was 0.1 to 1 µM.
The same measure, in the same setting: then `CC(C)N1CC([C@@H](C)NC(=O)c2ccc3c(Oc4ccc(C(F)(F)F)cc4)cccc3c2)C1` [Compound 133, (R)—N-(1-(1-isopropylazetidin-3-yl)ethyl)-5-(4-(trifluoromethyl)phenoxy)-2-naphthamide], with 1 to 3 µM; and `C[C@H](NC(=O)c1ccc2c(Oc3ccc(C(F)(F)F)cc3)cccc2c1)C1CN(CC(F)F)C1` [Compound 134, (S)—N-(1-(1-(2,2-difluoroethyl)azetidin-3-yl)ethyl)-5-(4-(trifluoromethyl)phenoxy)-2-naphthamide], with 1 to 3 µM; and `C[C@H](NC(=O)c1ccc2c(Oc3ccc(C(F)(F)F)cc3)cccc2c1)C1CN(C2CC2)C1` [Compound 136, (S)—N-(1-(1-cyclopropylazetidin-3-yl)ethyl)-5-(4-(trifluoromethyl)phenoxy)-2-naphthamide], with 1 to 3 µM.
Regarding `C[C@@H](NC(=O)c1ccc2c(Oc3ccc(C(F)(F)F)cc3)cccc2c1)C1CN(C2CC2)C1` [Compound 137, (R)—N-(1-(1-cyclopropylazetidin-3-yl)ethyl)-5-(4-(trifluoromethyl)phenoxy)-2-naphthamide], the IC50 was below 0.1 µM.
In the case of `C[C@H](NC(=O)c1ccc2c(Oc3ccc(C(F)(F)F)cc3)cccc2c1)C1(O)CNC1` [Compound 138, (S)—N-(1-(3-hydroxyazetidin-3-yl)ethyl)-5-(4-(trifluoromethyl)phenoxy)-2-naphthamide], the IC50 is 0.1 to 1 µM.
Turning to `C[C@@H](NC(=O)c1ccc2c(Oc3ccc(C(F)(F)F)cc3)cccc2c1)C1(O)CNC1` [Compound 139, (R)—N-(1-(3-hydroxyazetidin-3-yl)ethyl)-5-(4-(trifluoromethyl)phenoxy)-2-naphthamide], the half-maximal inhibitory concentration (IC50) is below 0.1 µM.
`O=C(N[C@@H](CO)C1CNC1)c1ccc2c(Oc3ccc(C(F)(F)F)cc3)cccc2c1` [Compound 140, (R)—N-(1-(azetidin-3-yl)-2-hydroxyethyl)-5-(4-(trifluoromethyl)phenoxy)-2-naphthamide]: the IC50 was 1 to 3 µM.
With `O=C(N[C@H](CO)C1CNC1)c1ccc2c(Oc3ccc(C(F)(F)F)cc3)cccc2c1` [Compound 142, (S)—N-(1-(azetidin-3-yl)-2-hydroxyethyl)-5-(4-(trifluoromethyl)phenoxy)-2-naphthamide], the IC50 was 0.1 to 1 µM.
The same measure, in the same setting: then `C[C@H](CCN(C)C)NC(=O)c1ccc2c(Oc3ccc(C(F)(F)F)cc3)cccc2c1` [Compound 144, (R)-N-(4-(dimethylamino)butan-2-yl)-5-(4-(trifluoromethyl)phenoxy)-2-naphthamide], with below 0.1 µM; and `CNCC[C@@H](C)NC(=O)c1ccc2c(Oc3ccc(C(F)(F)F)cc3)cccc2c1` [Compound 145, (R)-N-(4-(methylamino)butan-2-yl)-5-(4-(trifluoromethyl)phenoxy)-2-naphthamide], with below 0.1 µM.

By IC50 is commonly meant the concentration needed to halve the response being measured.
